Data published in patent US20050118116A1, “Dental bleaching product” (UNIVERSITAT DE LES ILLES BALEARS, LABORATORIOS KIN, S.A., priority 1999, published 2005).

How the values were obtained:
[1] = tooth brightness factor before/after treatment (non-limiting example in the description); settings: 1.5% carbamide peroxide, pH 6.5 phosphates; peroxidase 20 units pyrogallol/ml where present; 64% before treatment
[2] = speed with which a tetracycline solution is rendered colourless (spectrophotometer, 37° C.); type: biochemical; settings: no peroxidase; high carbamide peroxide concentrations; FIG. 2
Excerpt: The mouth wash consists of a 2.4% carbamide peroxide solution in 0.1 M phosphate buffer, pH 6.5 and on the other hand, a peroxidase solution (120 units of pyrogallol/ml) in 0.1 M phosphate buffer, pH 6.5 which is fed into the container in which the de-staining reaction is to take place, immediately after the mouth wash.
The substance to be rendered colourless is tetracycline, which is solublised in water at a concentration of 0.015M. The maximum tetracycline absorption wavelength has been selected so as to monitor the de-staining speed. The de-staining speed is determined using a spectrophotometer which allows the absorption to be monitored continually, the reaction tray being thermostated at 37° C. The de-staining reaction speeds have been calculated from the relations between absorbency variation and the reaction time, and they have been expressed in nKat.
The necessary quantities of tetracycline solution, the mouth wash and enzyme (in this order) are placed in the reaction tray to obtain the parameter combinations according to which it is intended to evaluate the enzyme bleaching capacity.

For `NC(N)=O.OO` [carbamide peroxide], the “brightness factor of a tooth after treatment” value [1] was 64% and the “carbamide peroxide concentration from which de-staining speed saturates” value [2] was “approximately 0.70 M”.
